This note sets out measurements from PubChem BioAssay (NCI).

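Cells were grown in 96-well plates and exposed to each compound for 48 hours at five concentrations; endpoints were interpolated linearly between bracketing concentrations, or set to the highest concentration if not reached. TGI: concentration producing complete growth inhibition.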 Where a SMILES comes first, the peptide text is derived from it. [ ]: non-standard residue; d: D form. The star is where a group is joined. NMeAc5c = CNC1(C(=O)O)CCCC1; Boc = CC(C)(C)OC(=O)*; OBn = c1ccc(CO*)cc1

The first test relates to 786-0 renal. As to the kind of experiment: DTP human tumour cell line panel, 48 h.
The compound `Cc1ccccc1C(=O)N1CCc2c([nH]c3ccccc23)C1` had a TGI of 54.4 µM. In other words, the double-digit micromolar range.
The same measure, in the same setting: to `Cc1nc2n(c1/C=C1/C(=O)Nc3cccc(Cl)c31)CCS2` belongs above 100 µM; to `NC(=O)NCCCC(NC(=O)OCCCCn1ccc(=O)[nH]c1=O)C(=O)O` (stereo not given), above 100 µM; to `CCOC(=O)C(SCCO)C(C(=O)OCC)n1cnc2c(=O)[nH]c(NC(C)=O)nc21` (stereo not given), above 100 µM.
`CC(C)(C)N1CSC(=S)N(Cc2ccco2)C1` returned a TGI of 11.5 µM. In other words, the double-digit micromolar range.
On the same count and under the same terms, to `CC(C)(C)OC(=O)NCCCCC1NC(=O)[C@@H]2Cc3c([nH]c4ccccc34)C(C3CCCCC3)N2C1=O` (stereo not given in full) belongs above 100 µM; to `CN(C(=O)C(Cc1ccccc1)NC(=O)OC(C)(C)C)C1(C(=O)NC(Cc2ccccc2)C(=O)OCc2ccccc2)CCCC1` (stereo not drawn) (Boc-Phe-[NMeAc5c]-Phe-OBn; configuration not given here), above 100 µM; to `COc1cc(C2c3cc4c(cc3OC(N3CCOCC3)C2C)OCO4)ccc1O` (stereo not given), above 100 µM.
The same measure, in the same setting: to `COc1ccc(COCCOCc2nc(C#N)c(N)o2)cc1` belongs above 100 µM; to `CC1(C)OC(=O)N(c2ccccc2)C12C=Cc1cc([N+](=O)[O-])cc([N+](=O)[O-])c1O2` (stereo not given), above 100 µM.

The subject of another test is A549 NSCLC. As to the kind of experiment: DTP human tumour cell line panel, 48 h.
`Cc1ccccc1C(=O)N1CCc2c([nH]c3ccccc23)C1` gave a TGI above 100 µM.
Same read-out and setting: to `Cc1nc2n(c1/C=C1/C(=O)Nc3cccc(Cl)c31)CCS2` belongs above 100 µM.
Same read-out and setting: to `NC(=O)NCCCC(NC(=O)OCCCCn1ccc(=O)[nH]c1=O)C(=O)O` (stereo not given) belongs above 100 µM; to `CCOC(=O)C(SCCO)C(C(=O)OCC)n1cnc2c(=O)[nH]c(NC(C)=O)nc21` (stereo not given), above 100 µM; to `CC(C)(C)N1CSC(=S)N(Cc2ccco2)C1`, 24.4 µM.
Still for that read-out and setting: to `CC(C)(C)OC(=O)NCCCCC1NC(=O)[C@@H]2Cc3c([nH]c4ccccc34)C(C3CCCCC3)N2C1=O` (stereo not given in full) belongs above 100 µM; to `CN(C(=O)C(Cc1ccccc1)NC(=O)OC(C)(C)C)C1(C(=O)NC(Cc2ccccc2)C(=O)OCc2ccccc2)CCCC1` (stereo not drawn) (Boc-Phe-[NMeAc5c]-Phe-OBn; configuration not given here), above 100 µM.
In turn, `COc1cc(C2c3cc4c(cc3OC(N3CCOCC3)C2C)OCO4)ccc1O` (stereo not given) yielded a TGI above 100 µM.
Same read-out and setting: to `COc1ccc(COCCOCc2nc(C#N)c(N)o2)cc1` belongs above 100 µM; to `CC1(C)OC(=O)N(c2ccccc2)C12C=Cc1cc([N+](=O)[O-])cc([N+](=O)[O-])c1O2` (stereo not given), above 100 µM.

The next test deals with BT-549 breast. As to the kind of experiment: DTP human tumour cell line panel, 48 h.
In turn, `Cc1ccccc1C(=O)N1CCc2c([nH]c3ccccc23)C1` displayed a TGI of 42.8 µM.
On the same count and under the same terms, to `Cc1nc2n(c1/C=C1/C(=O)Nc3cccc(Cl)c31)CCS2` belongs 98.7 µM; to `NC(=O)NCCCC(NC(=O)OCCCCn1ccc(=O)[nH]c1=O)C(=O)O` (stereo not given), above 100 µM.
Same read-out and setting: to `CCOC(=O)C(SCCO)C(C(=O)OCC)n1cnc2c(=O)[nH]c(NC(C)=O)nc21` (stereo not given) belongs above 100 µM; to `CC(C)(C)N1CSC(=S)N(Cc2ccco2)C1`, 9.62 µM; to `CC(C)(C)OC(=O)NCCCCC1NC(=O)[C@@H]2Cc3c([nH]c4ccccc34)C(C3CCCCC3)N2C1=O` (stereo not given in full), above 100 µM.
On to `CN(C(=O)C(Cc1ccccc1)NC(=O)OC(C)(C)C)C1(C(=O)NC(Cc2ccccc2)C(=O)OCc2ccccc2)CCCC1` (stereo not drawn) (Boc-Phe-[NMeAc5c]-Phe-OBn; configuration not given here), for which the concentration for total growth inhibition (TGI) is above 100 µM.
On the same count and under the same terms, to `COc1cc(C2c3cc4c(cc3OC(N3CCOCC3)C2C)OCO4)ccc1O` (stereo not given) belongs above 100 µM.
Same read-out and setting: to `COc1ccc(COCCOCc2nc(C#N)c(N)o2)cc1` belongs above 100 µM.
On the same count and under the same terms, to `CC1(C)OC(=O)N(c2ccccc2)C12C=Cc1cc([N+](=O)[O-])cc([N+](=O)[O-])c1O2` (stereo not given) belongs above 100 µM.

The subject of the next test is COLO 205 colon. The experiment in a line: DTP human tumour cell line panel, 48 h.
For `Cc1ccccc1C(=O)N1CCc2c([nH]c3ccccc23)C1`, the TGI is 31.9 µM.
Still for that read-out and setting: to `Cc1nc2n(c1/C=C1/C(=O)Nc3cccc(Cl)c31)CCS2` belongs above 100 µM.
Same read-out and setting: to `NC(=O)NCCCC(NC(=O)OCCCCn1ccc(=O)[nH]c1=O)C(=O)O` (stereo not given) belongs above 100 µM; to `CCOC(=O)C(SCCO)C(C(=O)OCC)n1cnc2c(=O)[nH]c(NC(C)=O)nc21` (stereo not given), above 100 µM; to `CC(C)(C)N1CSC(=S)N(Cc2ccco2)C1`, 14.7 µM.
As for `CC(C)(C)OC(=O)NCCCCC1NC(=O)[C@@H]2Cc3c([nH]c4ccccc34)C(C3CCCCC3)N2C1=O` (stereo not given in full), the TGI came out at 55.1 µM.
On the same count and under the same terms, to `CN(C(=O)C(Cc1ccccc1)NC(=O)OC(C)(C)C)C1(C(=O)NC(Cc2ccccc2)C(=O)OCc2ccccc2)CCCC1` (stereo not drawn) (Boc-Phe-[NMeAc5c]-Phe-OBn; configuration not given here) belongs 52.3 µM.
On the same count and under the same terms, to `COc1cc(C2c3cc4c(cc3OC(N3CCOCC3)C2C)OCO4)ccc1O` (stereo not given) belongs above 100 µM; to `COc1ccc(COCCOCc2nc(C#N)c(N)o2)cc1`, above 100 µM.
Same read-out and setting: to `CC1(C)OC(=O)N(c2ccccc2)C12C=Cc1cc([N+](=O)[O-])cc([N+](=O)[O-])c1O2` (stereo not given) belongs above 100 µM.

The subject of a further test is EKVX NSCLC. The experiment in a line: DTP human tumour cell line panel, 48 h.
`Cc1ccccc1C(=O)N1CCc2c([nH]c3ccccc23)C1` came in with a TGI of 75 µM.
Same read-out and setting: to `Cc1nc2n(c1/C=C1/C(=O)Nc3cccc(Cl)c31)CCS2` belongs above 100 µM; to `NC(=O)NCCCC(NC(=O)OCCCCn1ccc(=O)[nH]c1=O)C(=O)O` (stereo not given), above 100 µM; to `CCOC(=O)C(SCCO)C(C(=O)OCC)n1cnc2c(=O)[nH]c(NC(C)=O)nc21` (stereo not given), above 100 µM.
On the same count and under the same terms, to `CC(C)(C)N1CSC(=S)N(Cc2ccco2)C1` belongs 30.2 µM; to `CC(C)(C)OC(=O)NCCCCC1NC(=O)[C@@H]2Cc3c([nH]c4ccccc34)C(C3CCCCC3)N2C1=O` (stereo not given in full), above 100 µM; to `CN(C(=O)C(Cc1ccccc1)NC(=O)OC(C)(C)C)C1(C(=O)NC(Cc2ccccc2)C(=O)OCc2ccccc2)CCCC1` (stereo not drawn) (Boc-Phe-[NMeAc5c]-Phe-OBn; configuration not given here), above 100 µM.
Same read-out and setting: to `COc1cc(C2c3cc4c(cc3OC(N3CCOCC3)C2C)OCO4)ccc1O` (stereo not given) belongs above 100 µM; to `COc1ccc(COCCOCc2nc(C#N)c(N)o2)cc1`, above 100 µM; to `CC1(C)OC(=O)N(c2ccccc2)C12C=Cc1cc([N+](=O)[O-])cc([N+](=O)[O-])c1O2` (stereo not given), above 100 µM.

The subject of another test is HCC-2998 colon. As to the kind of experiment: DTP human tumour cell line panel, 48 h.
As to `Cc1ccccc1C(=O)N1CCc2c([nH]c3ccccc23)C1`, the TGI was 33.9 µM. That is a double-digit micromolar value.
On the same count and under the same terms, to `Cc1nc2n(c1/C=C1/C(=O)Nc3cccc(Cl)c31)CCS2` belongs above 100 µM; to `NC(=O)NCCCC(NC(=O)OCCCCn1ccc(=O)[nH]c1=O)C(=O)O` (stereo not given), above 100 µM.
The same measure, in the same setting: to `CCOC(=O)C(SCCO)C(C(=O)OCC)n1cnc2c(=O)[nH]c(NC(C)=O)nc21` (stereo not given) belongs above 100 µM; to `CC(C)(C)N1CSC(=S)N(Cc2ccco2)C1`, 13.3 µM.
Still for that read-out and setting: to `CC(C)(C)OC(=O)NCCCCC1NC(=O)[C@@H]2Cc3c([nH]c4ccccc34)C(C3CCCCC3)N2C1=O` (stereo not given in full) belongs 67.3 µM; to `CN(C(=O)C(Cc1ccccc1)NC(=O)OC(C)(C)C)C1(C(=O)NC(Cc2ccccc2)C(=O)OCc2ccccc2)CCCC1` (stereo not drawn) (Boc-Phe-[NMeAc5c]-Phe-OBn; configuration not given here), above 100 µM.
For the compound `COc1cc(C2c3cc4c(cc3OC(N3CCOCC3)C2C)OCO4)ccc1O` (stereo not given), the TGI was 52.5 µM.
In turn, `COc1ccc(COCCOCc2nc(C#N)c(N)o2)cc1` had a TGI above 100 µM.
On to `CC1(C)OC(=O)N(c2ccccc2)C12C=Cc1cc([N+](=O)[O-])cc([N+](=O)[O-])c1O2` (stereo not given), for which the TGI was above 100 µM.

A further test deals with HOP-62 NSCLC. The experiment in a line: DTP human tumour cell line panel, 48 h.
On to `Cc1ccccc1C(=O)N1CCc2c([nH]c3ccccc23)C1`, for which the TGI was above 100 µM.
Still for that read-out and setting: to `Cc1nc2n(c1/C=C1/C(=O)Nc3cccc(Cl)c31)CCS2` belongs 74.1 µM.
Still for that read-out and setting: to `NC(=O)NCCCC(NC(=O)OCCCCn1ccc(=O)[nH]c1=O)C(=O)O` (stereo not given) belongs above 100 µM.
The same measure, in the same setting: to `CCOC(=O)C(SCCO)C(C(=O)OCC)n1cnc2c(=O)[nH]c(NC(C)=O)nc21` (stereo not given) belongs above 100 µM; to `CC(C)(C)N1CSC(=S)N(Cc2ccco2)C1`, 19.4 µM.
